Consider 7 compounds from patent publication US8247429B2, “Tricyclic compound and pharmaceutical use thereof” (Takeda Pharmaceutical Company Limited, priority 2006, dated 2012).

Bounds are passed on as bounds.

Data set [1] has as its target T1, human melatonin 1 receptors (human MT1 receptors) (Homo sapiens, UniProt P48039).
T1 construct: expressed in transfected cells; membrane fraction used
Nature of the data set: Melatonin receptor binding inhibitory test (2-[125I] Iodomelatonin), MT1. The settings on record: membrane fraction of CHO-hMelR7 cells, 25° C. for 2.5 hr. As for the experimental part: (§1) Melatonin receptor binding inhibitory test
(1) Preparation of CHO-hMelR7 Cells Expressing Human Melatonin 1 Receptors
A cDNA fragment (SEQ ID NO: 1) encoding full-length of human melatonin 1 receptors (human MT1 receptors) was incorporated into expression vector pAKKO-111H (former name pAKKO1.11H; Biochim Biophys Acta. Vol. 1219(2), pp. 251-259, 1994) to give plasmid pAKKO-hMelR7 for animal cell expression. CHO/dhfr-cells (ATCC, #CRL-9096) were plated at a concentration of 0.3×10^6 cells/dish in a 6 cm culture dish (Becton Dickinson), and cultured under the conditions of 37° C., 5% CO2 for 48 hr. The cells were transfected with pAKKO-hMelR7 plasmid DNA (5 μg) using Cellphect Transfection Kit (Amersham, #27-9268-01). The transfected cells were cultured in Dulbecco's modified Eagle medium (DMEM) (Sigma, #D6046) containing 10% dialyzed FBS (Biowest, #S180D), 1× Non-Essential Amino Acid (Invitrogen, #11140-050) and 50 μg/mL Gentamycin (Invitrogen, #15750-060), and the cell line that stably expressed the plasmid gene was selected. By a receptor binding assay using 2-[^125I] Iodomelatonin, CHO-hMelR7 cell line showing specific binding of 2-[^125I] Iodomelatonin was selected from the obtained clones.
(§2) (3) Preparation of Cellular Membrane Fraction of CHO Cell (CHO-hMelR7 and CHO-hMT2) Stably Expressing Human MT1 and MT2 Receptors
(§3) CHO-hMelR7 and CHO-hMT2 cells were plated using Cellfactory (Nunc, #170009) under the conditions of 1×10^8 cells/2000 mL/flask. The cells were grown to confluent, and recovered by the following method. As the medium for CHO-hMelR7 and CHO-hMT2, MEM α containing 10% FBS and penicillin/streptomycin was used. […] of geneticin was added to the medium for CHO-hMT2.
(§4) The medium was discarded, cells were washed twice with 200 mL of EDTA/PBS(−), 200 mL of EDTA/PBS(−) was further added, and the cells were stood still at room temperature for 20 min until they were released. The cells were recovered in four 50 mL tubes (Becton Dickinson, #352070), and centrifuged at 1,500 rpm for 10 min at 4° C. using a low speed cooling centrifuge (Hitachi, CF7D2). The supernatant was discarded, the pellets in the four tubes were suspended in 10 mL of PBS(−), and combined in one tube (Becton Dickinson, #352070). The mixture was further centrifuged at 1,500 rpm for 10 min at 4° C., and the obtained pellets were suspended in 20 mL of ice-cooled homogenizing buffer [10 mM NaHCO3, 5 mM EDTA, Protease inhibitor Complete (Roche), pH 7.4]. The cell suspension was homogenized 3 times using a polytron homogenizer at 20,000 rpm for 30 sec. The obtained homogenate was centrifuged (2,000 rpm, 10 min, 4° C.) using a low speed cooling centrifuge. The supernatant was recovered in an ultracentrifugation tube and ultracentrifuged (40,000 rpm, 60 min, 4° C.) using an ultracentrifuge (Beckman, L-90K). To the obtained pellets was added a suspending buffer [50 mM Tris-HCl, 1 mM EDTA, Protease inhibitor Complete (Roche), pH 7.4], and the pellets were suspended by pipetting. The protein concentration of this suspension was measured, diluted to 2 mg/mL to give cellular membrane fractions of CHO-hMelR7 and CHO-hMT2 cells. The membrane fractions were dispensed to 1.5 mL tubes (Eppendorf, #0030120.086) by 100 μL, preserved in a freezer (−80° C.) and used for a binding assay. Protein was quantified using BCA protein assay kit (Pierce) with BSA as the standard.
(§5) (4) Preparation of Membrane Fraction Suspension
(§6) Immediately before use, the membrane fractions of CHO-hMelR7 and CHO-hMT2 cells of the above-mentioned (3) were diluted 20-fold with assay buffer (50 mM Tris-HCl, pH 7.7).
(§7) (5) Preparation of 2-[^125I] Iodomelatonin Solution
(§8) 2-[^125I] Iodomelatonin (#NEX236, PerkinElmer) was diluted with the assay buffer to 400 pM for MT1 and 1 nM for MT2.
(§9) The assay buffer (80 μL) of the above-mentioned (4) was added to each well of a 96-well plate (type 3363, Corning). […]

Data set [2] deals with T2, human melatonin 2 receptors (human MT2 receptors) (Homo sapiens, UniProt P49286).
T2 construct: expressed in transfected cells; membrane fraction used
T2 sequence (P49286 1-362): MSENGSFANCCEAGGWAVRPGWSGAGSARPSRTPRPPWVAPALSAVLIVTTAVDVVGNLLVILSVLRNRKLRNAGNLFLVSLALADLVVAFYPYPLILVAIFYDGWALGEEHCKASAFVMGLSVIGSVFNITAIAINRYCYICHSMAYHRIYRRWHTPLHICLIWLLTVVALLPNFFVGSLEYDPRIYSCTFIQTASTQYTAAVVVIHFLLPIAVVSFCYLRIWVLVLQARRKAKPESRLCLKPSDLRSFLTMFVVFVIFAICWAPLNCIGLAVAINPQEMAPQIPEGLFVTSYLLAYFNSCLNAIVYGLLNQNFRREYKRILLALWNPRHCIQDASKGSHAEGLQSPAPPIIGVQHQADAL
As to the kind of experiment: Melatonin receptor binding inhibitory test (2-[125I] Iodomelatonin), MT2. To be noted: membrane fraction of CHO-hMT2 cells, 25° C. for 2.5 hr. As for the experimental part: as §1
(2) Preparation of CHO-hMT2 Cells Expressing Human Melatonin 2 Receptors
A cDNA fragment (SEQ ID NO: 2) encoding full-length of human melatonin 2 receptors (human MT2 receptors) was incorporated into expression vector pCMV-Script (Stratagene, #212220) to give the plasmid that was pCMV-human MT2 receptors expression vector for animal cell expression. CHO-K1 cells (ATCC, #CCL-61) were plated at the concentration of 1.5×10^5 cells/cm^2 in a 6 well plate (ASAHI TECHNO GLASS), and cultured under the conditions of 37° C., 5% CO2 for 24 hr. For gene transfection, solution obtained by blending pCMV-human MT2 receptors expression vector (1.9 μg), Lipofectamine Transfection Reagent (Invitrogen, #18324-012) (11.3 μL) and Minimum Essential Medium Eagle (MEM) medium (Sigma, M8042) (93.8 μL), and reacting at room temperature for 20 min was added to the cells per one well. The transfected cells were cultured in MEM medium containing 10% FBS (Life Technology) and 300 μg/mL Geneticin (GIBCO, #10131), and the cell line that stably expressed the plasmid gene was selected. By a receptor binding assay using 2-[^125I] Iodomelatonin, CHO-hMT2 cell line showing specific binding of 2-[^125I] Iodomelatonin was selected from the obtained clones.
as §2, §3, §4, §5, §6, §7, §8, §9

T1 sequence (P48039 whole entry): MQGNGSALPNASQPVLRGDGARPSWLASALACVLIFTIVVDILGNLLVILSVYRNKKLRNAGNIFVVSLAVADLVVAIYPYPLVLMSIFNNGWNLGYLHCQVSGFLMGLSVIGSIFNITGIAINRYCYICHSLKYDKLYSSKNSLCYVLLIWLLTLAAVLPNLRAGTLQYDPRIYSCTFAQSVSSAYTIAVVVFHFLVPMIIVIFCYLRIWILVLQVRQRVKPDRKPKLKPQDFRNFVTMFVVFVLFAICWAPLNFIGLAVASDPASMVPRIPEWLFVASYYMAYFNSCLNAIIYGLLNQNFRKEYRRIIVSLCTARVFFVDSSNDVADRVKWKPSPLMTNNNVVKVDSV

One may read the IC50 as the concentration that inhibits the measured activity by half. Higher therefore signals weaker potency in that assay. By melting point is commonly meant the temperature of the solid-liquid transition. For `CC(=O)NCC=C1CCc2c(Cl)cc3nn(C)cc3c21` [Example 30, N-[2-(5-chloro-2-methyl-6,7-dihydrocyclopenta[e]indazol-8(2H)-ylidene)ethyl]acetamide], the melting point lay in the range of 177 to 178 °C. In addition, the concentration for half-maximal inhibition (IC50) in data set [1] is ≤ 100 nM. Also, the 50% inhibitory concentration (IC50) in data set [2] is ≤ 100 nM.
`CC(=O)NCC[C@@H]1CCc2ccc3nn(C)c(Cl)c3c21` [Example 24, N-{2-[(8S)-1-chloro-2-methyl-2,6,7,8-tetrahydrocyclopenta[e]indazol-8-yl]ethyl}acetamide] showed a melting point of 168 to 171 °C. Also, the IC50 in data set [1] was ≤ 100 nM. The IC50 in data set [2] is ≤ 100 nM.
Regarding `CC(=O)NCCC1CCc2ccn3nc(C)c(C)c3c21` (stereo not drawn) [Example 14, N-[2-(1,2-dimethyl-8,9-dihydro-7H-cyclopenta[c]pyrazolo[1,5-a]pyridin-9-yl)ethyl]acetamide], the melting point fell in the range of 134 to 135 °C. In addition, the IC50 in data set [1] is ≤ 100 nM. Further, in data set [2], the half-maximal inhibitory concentration (IC50) was ≤ 100 nM.
`Cc1cc2c3c(ccn2n1)CCC3CCNC(=O)C1CC1` (stereo not drawn) [Example 33, N-[2-(2-methyl-8,9-dihydro-7H-cyclopenta[c]pyrazolo[1,5-a]pyridin-9-yl)ethyl]cyclopropanecarboxamide] returned a melting point of 112 to 113 °C. Moreover, in data set [1], the IC50 was ≤ 100 nM. Besides, the 50% inhibitory concentration (IC50) in data set [2] was ≤ 100 nM.
Take `CC(=O)NCC=C1CCc2ccc3nn(C)cc3c21` [Example 1, N-[2-(2-methyl-6,7-dihydrocyclopenta[e]indazol-8(2H)-ylidene)ethyl]acetamide]: the melting point fell in the range of 200 to 202 °C. The IC50 in data set [1] is ≤ 100 nM. Moreover, the half-maximal inhibitory concentration (IC50) in data set [2] is ≤ 100 nM.
As for `CC(=O)NCC=C1CCc2ccc3nn(C)c(C)c3c21` [Example 7, N-[2-(1,2-dimethyl-6,7-dihydrocyclopenta[e]indazol-8(2H)-ylidene)ethyl]acetamide], the melting point was in the range of 200 to 203 °C. Moreover, in data set [1], the IC50 was ≤ 100 nM. Further, the IC50 in data set [2] is ≤ 100 nM.
Compound `CC(=O)NCCC1CCc2ccn3nccc3c21` (stereo not drawn) [Example 11, N-[2-(8,9-dihydro-7H-cyclopenta[c]pyrazolo[1,5-a]pyridin-9-yl)ethyl]acetamide] had a melting point of 100 to 101 °C. In addition, in data set [1], the IC50 was ≤ 100 nM. The 50% inhibitory concentration (IC50) in data set [2] is ≤ 100 nM.
